From US4499090A, “N-(5-aminomethyl-2-oxazolin-2-yl)-N'-phenylureas, compositions and use” (Societe Cortial, S.A., priority 1982, dated 1985)

How the values were obtained:
[1] = test system: convulsions induced by bicuculline; experiment: Convulsions induced by injection of bicuculline; format: in vivo
[2] = test system: GABA transaminase; experiment: Action on GABA transaminase, concluded from second administration of bicuculline; format: in vivo; conditions: concluded from lack of inhibition of convulsions at second bicuculline administration 5 hours later
[3] = Toxicity determined in mice, oral and intraperitoneal administration; format: in vivo
Procedure: The toxicity was determined in mice for various ways of administration.

[4] = test system: arrhythmias in mice subjected to chloroform anesthesia; experiment: Arrhythmias in mice subjected to chloroform anesthesia; format: in vivo; conditions: intraperitoneally, 100 mg/kg
[5] = test system: edema of a rat's foot induced by carrageenan; experiment: Edema of a rat's foot induced by carrageenan; format: in vivo; conditions: orally, 200 mg/kg
[6] = test system: right auricle of a guinea pig; experiment: Chronotropic effect induced by histamine on the spontaneously beating right auricle of a guinea pig; conditions: Cavia porcellus, 100 microg/ml, 5 microg/ml of histamine

| SMILES | type of activity ([1]; concluded from the bicuculline convulsion tests) | inhibition of convulsions induced by bicuculline ([1]; intraperitoneally, 80 mg/kg, 0.5 mg/kg of bicuculline 30 minutes later) | inhibition of convulsions induced by a second administration of bicuculline ([1]; intraperitoneally, 80 mg/kg, second administration of bicuculline 5 hours later) | action on GABA transaminase [2] | mortality ([3]; intraperitoneally at 200 mg/kg) | mortality ([3]; orally at 300 mg/kg) | appearance of arrhythmias [4] | inhibition of edema of a rat's foot induced by carrageenan [5] [%] | inhibition at 100 µg/mL [6] [%] |
| --- | --- | --- | --- | --- | --- | --- | --- | --- | --- |
| O=C(NC1=NCC(CN2CCc3ccccc3C2)O1)Nc1ccccc1 (centres unmarked) [Example 3] | direct gabergic type | caused an inhibition of convulsions | no longer inhibits convulsions | does not act on the GABA transaminase | did not cause any mortality | did not cause any mortality |  |  |  |
| O=C(NC1=NCC(CN2CCCCC2)O1)Nc1ccccc1 (centres unmarked) [Example 2, N-Phenyl-N'-(5-piperidinomethyl-2-oxazoline-2-yl)urea] |  |  |  |  | did not cause any mortality | did not cause any mortality | prevented the appearance of arrhythmias |  |  |
| CCN(CC)CC1CN=C(NC(=O)Nc2ccccc2)O1 (centres unmarked) [Example 1, N-(5-diethylaminomethyl-2-oxazolin-2-yl)-N'-phenylurea] |  |  |  |  | did not cause any mortality | did not cause any mortality | prevented the appearance of arrhythmias | 51 | > 50 |
